Laboratory results published in patent US20080004222A1, “Antitumorigenic Drug Combination” (priority 2006, published 2008).
Non-standard residues stand in square brackets, D forms with d. d(aIle) = CC[C@H](C)[C@@H](N)C(=O)O; Nva = CCC[C@H](N)C(=O)O; Sar = CNCC(=O)O

What was measured:
[1] = tested on: SMS-KCNR MYCN-amplified NB cell line xenografts; assay: Neuroblastoma xenograft study, SMS-KCNR model; type: in vivo, athymic nude mice; conditions: SMS-KCNR xenografts about 70 mm^3, 20 days of treatment, each agent alone and in combination
Description: (§1) SMS-KCNR, NMB, and NBL-W-S MYCN amplified NB cell lines were used in this study. Cells were grown at 5% CO2 in RPMI 1640 (Invitrogen, Carlsbad, Calif.) supplemented with 10% heat-inactivated fetal bovine serum, L-Glutamine, and antibiotics.
(§2) Lyophilized peptides with the sequence: acetyl-sarcosine-glycine-valine-D-alloisoleucine-threonine-norvaline-isoleucine-arginine-proline-ethylamide were dissolved in sterile 5% dextrose and stored at 4° C.
(§3) Female 4-6 week old homozygous athymic nude mice (Harlan, Madison, Wis.) were inoculated s.c. into the right flank with ^1×107SMS-KCNR or 1.25×10^7 NMB cells. Once tumors were palpable (70 mm^3), mice were treated 1×/day for 20 days with either acetyl-sarcosine-glycine-valine-Dalloisoleucine-threonine-norvaline-isoleucine-arginine-proline-ethylamide (IP, 40 mg/kg), VPA (IP, 400 mg/kg) or acetyl-sarcosine-glycine-valine-D-alloisoleucine-threonine-norvaline-isoleucine-arginine-proline-ethylamide and VPA (in combination). In separate experiments, treatment was started after the animals developed larger tumors>380 mm^3 in size and treatment was continued for 10 days. Tumor volumes were measured twice a week and calculated using the formula: tumor volume =(length X width^2)/2(25). The Student's t-test was used to compare tumor size in the control and treatment groups. Mice were sacrificed after 20 or 10 days of treatment, respectively. […]

[2] = tested on: large NB xenografts; conditions: large xenografts >380 mm^3, after 10 days of treatment; peptide p<0.01, VPA p<0.001; FIG. 1C
Description: as §1, §2, §3

[3] = tested on: NMB MYCN-amplified NB cell line xenografts; assay: Neuroblastoma xenograft study, NMB xenografts; type: in vivo, athymic nude mice; conditions: NMB xenografts about 70 mm^3, 20 days of treatment, each agent alone and in combination
Description: as §1, §2, §3

Molecule: Ac-[Sar]GV[d(aIle)]T[Nva]IRP-NHEt
- tumor growth (result in words) [1]: Tumor growth was inhibited
- tumor volumes reduced [2]: 33%
- tumor growth (result in words) [3]: Tumor growth was inhibited

Molecule: CCCC(CCC)C(=O)O [VPA, valproic acid]
- tumor growth (result in words) [1]: Tumor growth was inhibited
- tumor volumes reduced [2]: 44%
- tumor growth (result in words) [3]: Tumor growth was inhibited
